These results are taken from patent US8163793B2, “Proline derivatives” (Hoffman-La Roche Inc., priority 2009, dated 2012).

For one assay, the target named is Cat L (UniProt P07711). Briefly: Cathepsin enzyme inhibition assay (fluorogenic peptide substrate Z-Val-Val-Arg-AMC), Cathepsin L. The class given is biochemical, human and mouse. The following applies: enzyme 1 nM, substrate 20 μM, pH 6.5; read-out: CatL IC50. In a few lines: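 Fluorogenic cleavage of Z-Val-Val-Arg-AMC (20 μM) by 1 nM Cat L was monitored at ex 360/em 465 nm for 20 min, the linear phase. The buffer was 100 mM potassium phosphate pH 6.5 with 5 mM EDTA and DTT. IC50 values were derived by standard methods, in μM.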

A further assay has as its target Cathepsin S (UniProt P25774). Kind of assay: Cathepsin enzyme inhibition assay (fluorogenic peptide substrate Z-Val-Val-Arg-AMC), Cathepsin S. In kind it is biochemical, human and mouse. The following applies: enzyme 1 nM, substrate 20 μM, pH 6.5; read-out: CatS IC50. In a few lines: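 Compounds were combined with 1 nM human or mouse enzyme, and substrate then started the reaction. The buffer was potassium phosphate (100 mM, pH 6.5) containing EDTA-Na 5 mM, Triton X-100 0.001% and […] 5 mM.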

Broadly, the IC50 is the midpoint of a concentration-inhibition curve. For `Cc1cc(N2C[C@H](S(=O)(=O)c3ccccc3C(F)(F)F)C[C@H]2C(=O)NC2(C#N)CC2)n(-c2ccnc3ccccc23)n1` [Example 352, (2S,4R)-1-(5-Methyl-2-quinolin-4-yl-2H-pyrazol-3-yl)-4-(2-trifluoromethyl-benzenesulfonyl)-pyrrolidine-2-carboxylic acid (1-cyano-cyclopropyl)-amide], the IC50 on Cat L was 7230 nM; at Cathepsin S, 0.25 nM.
The corresponding values for `Cc1cc(N2C[C@H](S(=O)(=O)c3ccccc3Cl)C[C@H]2C(=O)NC2(C#N)CC2)n(C2CCC2)n1` [Example 353, (2S,4R)-4-(2-Chloro-benzenesulfonyl)-1-(2-cyclobutyl-5-methyl-2H-pyrazol-3-yl)-pyrrolidine-2-carboxylic acid (1-cyano-cyclopropyl)-amide] are 13500 nM and 0.99 nM.
`N#CC1(NC(=O)C2CC(S(=O)(=O)c3ccccc3C(F)(F)F)CN2c2cccc(C(F)(F)F)c2)CC1` (stereo not drawn) [Example 354, 4-(2-Trifluoromethyl-benzenesulfonyl)-1-(3-trifluoromethyl-phenyl)-pyrrolidine-2-carboxylic Acid (1-cyano-cyclopropyl)-amide]: the IC50 is no less than 25000 nM on Cat L and 0.175 nM on Cathepsin S.
For the compound `CC(C)(C)c1ccccc1N1CC(S(=O)(=O)c2ccccc2C(F)(F)F)CC1C(=O)NC1(C#N)CC1` (stereo not drawn) [Example 355, 1-(2-tert-Butyl-phenyl)-4-(2-trifluoromethyl-benzenesulfonyl)-pyrrolidine-2-carboxylic acid (1-cyano-cyclopropyl)-amide], the results for the IC50 on Cat L and on Cathepsin S were no less than 25000 nM and 2450 nM, respectively.
Regarding `CC(=O)Nc1cccc(-n2nc(C)cc2N2C[C@H](S(=O)(=O)c3ccccc3C(F)(F)F)C[C@H]2C(=O)NC2(C#N)CC2)c1` [Example 356, (2S,4R)-1-[2-(3-Acetylamino-phenyl)-5-methyl-2H-pyrazol-3-yl]-4-(2-trifluoromethyl-benzenesulfonyl)-pyrrolidine-2-carboxylic acid (1-cyano-cyclopropyl)-amide], the IC50 at Cat L amounted to 31800 nM; at Cathepsin S, 0.06 nM.
For `CC(=O)Nc1cccc(-n2nc(C)cc2N2C[C@H](S(=O)(=O)c3ccccc3C(F)(F)F)C[C@@H]2C(=O)NC2(C#N)CC2)c1` [Example 357, (2R,4R)-1-[2-(3-Acetylamino-phenyl)-5-methyl-2H-pyrazol-3-yl]-4-(2-trifluoromethyl-benzenesulfonyl)-pyrrolidine-2-carboxylic acid (1-cyano-cyclopropyl)-amide], in that order: no less than 25000 nM and 17.5 nM.
Turning to `N#Cc1cccc(N2CC(S(=O)(=O)c3ccccc3C(F)(F)F)CC2C(=O)NC2(C#N)CC2)c1` (stereo not drawn) [Example 358, 1-(3-Cyano-phenyl)-4-(2-trifluoromethyl-benzenesulfonyl)-pyrrolidine-2-carboxylic acid (1-cyano-cyclopropyl)-amide], the IC50 was no less than 25000 nM on Cat L and 0.5 nM at Cathepsin S.
With `Cc1cc(N2C[C@H](S(=O)(=O)c3ccccc3Cl)C[C@H]2C(=O)NC2(C#N)CC2)n(CCc2ccccc2)n1` [Example 359, (2S,4R)-4-(2-Chloro-benzenesulfonyl)-1-(5-methyl-2-phenethyl-2H-pyrazol-3-yl)-pyrrolidine-2-carboxylic acid (1-cyano-cyclopropyl)-amide], the IC50 on Cat L is 1050 nM; on Cathepsin S, 0.67 nM.
Regarding `N#CC1(NC(=O)[C@@H]2C[C@@H](S(=O)(=O)c3ccccc3C(F)(F)F)CN2C(=O)C2(c3ccc(Cl)cc3)CCC2)CC1` [Example 360, (2S,4R)-1-[1-(4-Chloro-phenyl)-cyclobutanecarbonyl]-4-(2-trifluoromethyl-benzenesulfonyl)-pyrrolidine-2-carboxylic acid (1-cyano-cyclopropyl)-amide], the IC50 came out at 1180 nM at Cat L and 0.185 nM at Cathepsin S.
Take `N#CC1(NC(=O)[C@@H]2C[C@@H](S(=O)(=O)c3ccccc3C(F)(F)F)CN2C(=O)C2(c3ccc(Cl)nc3)CC2)CC1` [Example 361, (2S,4R)-1-[1-(6-Chloro-pyridin-3-yl)-cyclopropanecarbonyl]-4-(2-trifluoromethyl-benzenesulfonyl)-pyrrolidine-2-carboxylic acid (1-cyano-cyclopropyl)-amide]: the IC50 at Cat L is 995 nM; on Cathepsin S, 0.02 nM.
As to `N#CC1(NC(=O)C2CC(S(=O)(=O)c3ccccc3C(F)(F)F)CN2C2CCOCC2)CC1` (stereo not drawn) [Example 362, 1-(Tetrahydro-pyran-4-yl)-4-(2-trifluoromethyl-benzenesulfonyl)-pyrrolidine-2-carboxylic acid (1-cyano-cyclopropyl)-amide], the IC50 at Cat L was no less than 25000 nM; at Cathepsin S, 380 nM.
The corresponding values for `N#CC1(NC(=O)[C@@H]2C[C@@H](S(=O)(=O)c3ccccc3C(F)(F)F)CN2c2cc(C3CC3)nn2-c2ccc(C(F)(F)F)cc2)CC1` [Example 363, (2S,4R)-1-[5-Cyclopropyl-2-(4-trifluoromethyl-phenyl)-2H-pyrazol-3-yl]-4-(2-trifluoromethyl-benzenesulfonyl)-pyrrolidine-2-carboxylic acid (1-cyano-cyclopropyl)-amide] are 10800 nM and 1.5 nM.
As for `CC(C)(C)OC(=O)N1CCC(N2CC(S(=O)(=O)c3ccccc3C(F)(F)F)CC2C(=O)NC2(C#N)CC2)CC1` (stereo not drawn) [Example 364, 4-[2-(1-Cyano-cyclopropylcarbamoyl)-4-(2-trifluoromethyl-benzenesulfonyl)-pyrrolidin-1-yl]-piperidine-1-carboxylic acid tert-butyl ester], the IC50 at Cat L is no less than 25000 nM; at Cathepsin S it was 295 nM.
Regarding `N#CC1(NC(=O)[C@@H]2C[C@@H](S(=O)(=O)c3ccc(OCC(F)(F)F)cc3Cl)CN2CC2(c3ccc(Cl)cc3)CC2)CC1` [Example 365, (2S,4R)-1-[1-(4-Chloro-phenyl)-cyclopropylmethyl]-4-[2-chloro-4-(2,2,2-trifluoro-ethoxy)-benzenesulfonyl]-pyrrolidine-2-carboxylic acid (1-cyano-cyclopropyl)-amide], the IC50 at Cat L is no less than 25000 nM; at Cathepsin S, 240 nM.
Turning to `N#CC1(NC(=O)[C@@H]2C[C@@H](S(=O)(=O)c3ccc(OCC(F)(F)F)cc3C(F)(F)F)CN2c2nnc(C(F)(F)F)s2)CC1` [Example 366, (2S,4R)-4-[4-(2,2,2-Trifluoro-ethoxy)-2-trifluoromethyl-benzenesulfonyl]-1-(5-trifluoromethyl-[1,3,4]thiadiazol-2-yl)-pyrrolidine-2-carboxylic acid (1-cyano-cyclopropyl)-amide], the IC50 was no less than 25000 nM on Cat L and 0.327 nM on Cathepsin S.
The corresponding values for `N#CC1(NC(=O)C2CC(S(=O)(=O)c3ccccc3C(F)(F)F)CN2c2cccc(OC(F)(F)F)c2)CC1` (stereo not drawn) [Example 367, 1-(3-Trifluoromethoxy-phenyl)-4-(2-trifluoromethyl-benzenesulfonyl)-pyrrolidine-2-carboxylic acid (1-cyano-cyclopropyl)-amide] are no less than 25000 nM and 1.57 nM.
The corresponding values for `N#CC1(NC(=O)[C@@H]2C[C@@H](S(=O)(=O)c3ccc(F)cc3Cl)CN2C(=O)C2(c3ccc(Cl)nc3)CC2)CC1` [Example 368, (2S,4R)-4-(2-Chloro-4-fluoro-benzenesulfonyl)-1-[1-(6-chloro-pyridin-3-yl)-cyclopropanecarbonyl]-pyrrolidine-2-carboxylic acid (1-cyano-cyclopropyl)-amide] are 267 nM and 0.21 nM.
The corresponding values for `CN1CCN(c2ccc(S(=O)(=O)[C@@H]3C[C@@H](C(=O)NC4(C#N)CC4)N(C(=O)C4(c5ccc(Cl)nc5)CC4)C3)c(Cl)c2)CC1` [Example 369, (2S,4R)-4-[2-Chloro-4-(4-methyl-piperazin-1-yl)-benzenesulfonyl]-1-[1-(6-chloro-pyridin-3-yl)-cyclopropanecarbonyl]-pyrrolidine-2-carboxylic acid (1-cyano-cyclopropyl)-amide; Compound with Formic Acid] are 26.3 nM and 0.07 nM.
With `CC(C)N1CCN(c2ccc(S(=O)(=O)[C@@H]3C[C@@H](C(=O)NC4(C#N)CC4)N(C(=O)C4(c5ccc(Cl)nc5)CC4)C3)c(Cl)c2)CC1` [Example 370, (2S,4R)-4-[2-Chloro-4-(4-isopropyl-piperazin-1-yl)-benzenesulfonyl]-1-[1-(6-chloro-pyridin-3-yl)-cyclopropanecarbonyl]-pyrrolidine-2-carboxylic acid (1-cyano-cyclopropyl)-amide; Compound with Formic Acid], the IC50 stood at 21.7 nM at Cat L and 0.07 nM on Cathepsin S.
In the case of `CC(C)(C)N1CCN(c2ccc(S(=O)(=O)[C@@H]3C[C@@H](C(=O)NC4(C#N)CC4)N(C(=O)C4(c5ccc(Cl)nc5)CC4)C3)c(Cl)c2)CC1` [Example 371, (2S,4R)-4-[4-(4-tert-Butyl-piperazin-1-yl)-2-chloro-benzenesulfonyl]-1-[1-(6-chloro-pyridin-3-yl)-cyclopropanecarbonyl]-pyrrolidine-2-carboxylic acid (1-cyano-cyclopropyl)-amide; Compound with Formic Acid], the 50% inhibitory concentration (IC50) came to 26.3 nM on Cat L and 0.08 nM at Cathepsin S.
The corresponding values for `COCCN1CCN(c2ccc(S(=O)(=O)[C@@H]3C[C@@H](C(=O)NC4(C#N)CC4)N(C(=O)C4(c5ccc(Cl)nc5)CC4)C3)c(Cl)c2)CC1` [Example 372, (2S,4R)-4-{2-Chloro-4-[4-(2-methoxy-ethyl)-piperazin-1-yl]-benzenesulfonyl}-1-[1-(6-chloro-pyridin-3-yl)-cyclopropanecarbonyl]-pyrrolidine-2-carboxylic acid (1-cyano-cyclopropyl)-amide; Compound with Formic Acid] are 44.3 nM and 0.08 nM.
